Results as given in patent US5137889A, “Dihydropyridine derivatives and process for preparing the same” (Otsuka Pharmaceutical Co., Ltd., priority 1983, dated 1992).

What was measured:
[1] = target: T1, Calmodulin-cyclic-AMP phosphodiesterase (Bos taurus, UniProt P62157); assay: Calmodulin-cyclic-AMP phosphodiesterase inhibitory activity (presence of calmodulin); assay type: biochemical, bovine; details: with calmodulin and CaCl2, pH 7.0, 30° C., 30 minutes; for IC50: read-out: Calmodulin-cyclic-AMP phosphodiesterase IC50 (converted)
T1 construct: tissue Amano & Co. (calmodulin only); host or cells: phosphodiesterase: bovine heart, partially purified; calmodulin: bovine brain
Excerpt: (1) Calmodulin: A calmodulin product manufactured by Amano & Co., which was isolated from the brain of bovine, and purified so as to be considered as a single substance with respect to SDS-page (polyacrylamide gel electrophoresis) method.
(§1) (2) Calmodulin-dependent cyclic-AMP phosphodiesterase (EC 3.1.4.17): An enzyme substance isolated from the heart of bovine and purified partially by a method of modified version of the disclosure in H. C. Ho, T. S. Teo, et al.: "Biochim. Biophys. Acta", 429, 461 (1976).
(§2) (3) 5'-Nucleotidase (EC 3.1.3.5): Grade IV substance (isolated from Crotalus adamanteus venom) manufactured by Sigma & Co.
(§3) (4) Others: Remainder of the reagents used in the test were those of reagent grade chemicals manufactured by Wako Pure-Chemical Industries, Ltd.
(§4) Calmodulin inhibitory activity of each of the test compounds was measured by a method of modified version of the disclosure in T. S. Teo and T. H. Wang: "J. Bio. Chem.", 248, 588 (1973).
(2) Calmodulin: One unit thereof stimulates 0.015 activated unit of cyclic-AMP phosphodiesterase to 50% of the maximum activity of the enzyme.
(§5) (3) 5'-Nucleotidase: One unit thereof hydrolyzes 1.0 micromole of inorganic phosphorus from adnosine 5'-monophosphate per minute at pH 9.0 at 37° C.
(1) Calmodulin-cyclic-AMP phosphodiesterase inhibitory activity:
40 mM of Imidazol, 20 mM of MgCl2, 20 mM of CaC12, 0.008 unit of cyclic-AMP phosphodiesterase, 1.0 unit of calmodulin, 0.2 unit of 5'-nucleotidase and 1.0 ml of 10 mM-tris(hydroxymethyl)aminomethane/HCl buffer solution (pH 7.0) containing 0.5 mM of cyclic-AMP were mixed together, and reacted at 30° C. for 30 minutes. Each of the test compounds was dissolved in methanol or N,N-dimethylformamide as the solvent, provided that the quantity of the solvent was not exceed 2% of the total amount of the mixture. After the reaction was completed, the reaction mixture was ice-cooled, and 0.5 ml each of aqueous solutions of 16.5%-trichloroacetic acid, 1%-thiourea, 3%-ammonium ferrous sulfate were respectively added to the reaction mixture. Further, 0.15 ml of 4.4%-ammonium molibdate solution was added to the mixture and the whole of the mixture was stirred, and was centrifuged at 3,000 r.p.m. for 10 minutes. Then, the centrifuged mixture was allowed to stand at a room temperature for 20 minutes. The OD660 nm (optical density at 660 nm) was measured.

[2] = target: T2, Cyclic-AMP phosphodiesterase (Bos taurus, UniProt P14100); assay: Cyclic AMP phosphodiesterase inhibitory activity (absence of calmodulin, EGTA in place of CaCl2); assay type: biochemical, bovine; details: 1 mM EGTA in place of CaCl2; 3 hours
T2 construct: from tissue; host or cells: bovine heart, partially purified
Excerpt: as §1, §2, §3, §4, §5
(2) Cyclic AMP phosphodiesterase inhibitory activity:
The reaction was conducted by a method similar to that described in (1) as mentioned above, except that 1 mM of EGTA [ethylene glycol-bis(β-amino ethyl ether)-N,N-tetraacetic acid] was used in place of 20 mM of CaCl2. The reaction was conducted for 3 hours.

[3] = test system: SHR-rats (spontaneously hypertensive rats); details: 30 mg/kg p.o.
Method: Systolic blood pressures and heart beat of SHR-rats (spontaneously hypertensive rats) were determined by a "tail cuff method". Thus the test animal was placed in a thermostat chamber (Type: FR-12RS, manufactured by Isuze & Co.) and was warmed at 40° C. for 15 minutes so as to vasodilate the tail arteria, the systolic blood pressures were measured by an electro sphygmomanometer (Type: PE-300, manufactured by Narco-Biosystems, Inc.) and recorded by an ink-writing recorder (Type: RECTI-HORIZ 8s, manufactured by San-Ei Instrument & Co.). The experiments were conducted under non-anesthetized and semi-confinement conditions. The test compound was orally administered forcedly by using a sonde for oral administration. The test compound was suspended in 0.15%-gum arabic powder aqueous solution so as to make the quantity of the test compound to 2.5 ml/kg. The test animal was not fasted, and the systolic blood pressures (mm-Hg) were measured before the administration (hereinafter referred to as "PRE") and after the administration (8, 24, 30, 48, 54 and 72 hours after the administration) of the test compound. The data of systolic blood pressure measured before the administration are shown in absolute value of mmHg, and the data measured after the administration are shown in the differences from the absolute values.

T2 sequence (P14100 1-514 isoform P14100-2): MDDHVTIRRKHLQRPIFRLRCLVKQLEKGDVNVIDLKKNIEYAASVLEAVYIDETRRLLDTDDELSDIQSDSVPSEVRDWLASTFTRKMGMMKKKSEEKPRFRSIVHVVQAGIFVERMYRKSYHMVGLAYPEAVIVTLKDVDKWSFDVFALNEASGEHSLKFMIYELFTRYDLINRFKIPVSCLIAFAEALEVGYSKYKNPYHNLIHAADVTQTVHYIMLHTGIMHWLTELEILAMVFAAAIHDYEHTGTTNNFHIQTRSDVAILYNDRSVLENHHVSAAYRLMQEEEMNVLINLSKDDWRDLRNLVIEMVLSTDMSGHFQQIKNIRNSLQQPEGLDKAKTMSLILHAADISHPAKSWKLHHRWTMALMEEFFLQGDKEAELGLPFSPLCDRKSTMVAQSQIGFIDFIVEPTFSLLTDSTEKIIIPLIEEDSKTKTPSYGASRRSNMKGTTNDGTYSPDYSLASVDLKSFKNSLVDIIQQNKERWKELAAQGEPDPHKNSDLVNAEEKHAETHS

Compound	Calmodulin-cyclic-AMP phosphodiesterase IC50 [1]	Cyclic-AMP phosphodiesterase IC50 [2]	Blood pressure after the administration, 24 hours (difference from the absolute value before administration) [3]	Blood pressure after the administration, 30 hours (difference from the absolute value before administration) [3]	Blood pressure after the administration, 48 hours (difference from the absolute value before administration) [3]	Blood pressure after the administration, 54 hours (difference from the absolute value before administration) [3]	IC50 [1]	IC50 [2]	Blood pressure after the administration, 72 hours (difference from the absolute value before administration) ([3]; 72 hours)
Methyl 3-(4-hydroxyphenyl)-2-propynyl 1,4-dihydro-2,6-dimethyl-4-(3-nitrophenyl)-pyridine-3,5-dicarboxylate [Test Compound 12]	0.78 µg/mL	13 µg/mL	-18.0 mm-Hg	-25.8 mm-Hg	-19.8 mm-Hg	-14.6 mm-Hg			
Methyl 3-(4-hydroxyphenyl)-2(E)-propenyl 1,4-dihydro-2,6-dimethyl-4-(3-nitrophenyl)pyridine-3,5-dicarboxylate [Test Compound 1]	4.1 µg/mL	60 µg/mL	-38.6 mm-Hg	-21.2 mm-Hg	-21.0 mm-Hg	-19.2 mm-Hg			
COC(=O)C1=C(C)NC(C)=C(C(=O)OC/C=C/c2ccc(O)cc2)C1c1ccc(Cl)cc1Cl (centres unmarked) [Test Compound 24, Methyl 3-(4-hydroxyphenyl)-2(E)propenyl 1,4-dihydro-2,6-dimethyl-4-(2,4-dichloro-phenyl)pyridine-3,5-dicarboxylate]							5.02 µM	30.7 µM	
COC(=O)C1=C(C)NC(C)=C(C(=O)OCC#Cc2cccs2)C1c1cccc([N+](=O)[O-])c1 (centres unmarked) [Test Compound 22, Methyl 3-(2-thienyl)-2-propynyl 1,4-dihydro-2,6-dimethyl-4-(3-nitrophenyl)pyridine-3,5-dicarboxylate]							2.43 µM	> 221 µM	
Methyl 4-(4-methylthiophenyl)-3(E)-butenyl 1,4-dihydro-2,6-dimethyl-4-(3-nitrophenyl)-pyridine-3,5-dicarboxylate [Test Compound 15]	0.062 µg/mL	0.23 µg/mL	-75.4 mm-Hg	-66.8 mm-Hg	-20.8 mm-Hg	-10.6 mm-Hg			-9.6 mm-Hg
